Reference: US11780845B2 (Relay Therapeutics, Inc., priority 2019, dated 2023)

What follows are compounds tested against FGFR2 (Homo sapiens (Human), UniProt P21802) (assay: FGFR2 Biochemical Caliper Assay). Conditions: not given.
Method: Compounds of the present invention were also tested in a FGFR2 Biochemical Caliper Assay. Compounds were prepared in 10 mM DMSO solution and serially diluted into 11 concentrations by 3-fold dilution. […] 5 uL of ATP solution (100 uM) was added to start the reaction and the plate was incubated for 90 minutes, then 70 uL of stopping buffer (0.5M EDTA) was added to terminate the reaction. Each well was analyzed using EZ reader.

FGFR2, sequence (P21802 22-821): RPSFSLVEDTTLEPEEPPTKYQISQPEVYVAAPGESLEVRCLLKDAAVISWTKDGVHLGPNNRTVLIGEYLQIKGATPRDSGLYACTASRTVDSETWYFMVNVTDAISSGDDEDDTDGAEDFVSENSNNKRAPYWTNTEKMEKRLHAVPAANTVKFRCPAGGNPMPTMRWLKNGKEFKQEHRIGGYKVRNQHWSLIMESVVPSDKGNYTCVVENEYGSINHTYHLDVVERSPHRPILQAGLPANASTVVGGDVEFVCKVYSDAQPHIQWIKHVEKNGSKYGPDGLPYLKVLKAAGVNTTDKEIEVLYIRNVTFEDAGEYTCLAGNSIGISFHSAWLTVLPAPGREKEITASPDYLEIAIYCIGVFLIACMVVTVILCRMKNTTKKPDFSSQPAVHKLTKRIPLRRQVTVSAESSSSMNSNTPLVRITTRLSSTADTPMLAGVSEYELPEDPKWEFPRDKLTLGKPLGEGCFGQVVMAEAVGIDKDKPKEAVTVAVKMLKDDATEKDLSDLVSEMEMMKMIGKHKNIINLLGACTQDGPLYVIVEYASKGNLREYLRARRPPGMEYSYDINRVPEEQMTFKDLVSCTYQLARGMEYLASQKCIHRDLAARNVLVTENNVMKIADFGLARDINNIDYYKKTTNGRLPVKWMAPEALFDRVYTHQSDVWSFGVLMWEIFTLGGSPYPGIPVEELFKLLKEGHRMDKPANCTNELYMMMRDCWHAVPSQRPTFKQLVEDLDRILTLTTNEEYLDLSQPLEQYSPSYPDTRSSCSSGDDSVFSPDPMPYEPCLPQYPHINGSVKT

| IC50 | SMILES |
| --- | --- |
| < 100 nM | C=C(C)C(=O)Nc1ccc(-c2c(-c3ccc(C(=O)NCC4CCOC4)cc3)c3c(N)ncnc3n2C)cc1 (stereo not drawn) [Example 362] |
| < 100 nM | Cn1c(-c2ccc(NC(=O)C3=CCC3)cc2)c(C2=CC[C@@H](C(=O)N3CCCC3)CC2)c2c(N)ncnc21 (single isomer, unassigned) [Example 565] |
| 100 to 250 nM | C=C(C)C(=O)Nc1ccc(-c2c(-c3ccc(Oc4cccc(C)n4)cc3)c3c(N)ncnc3n2C)cc1OC [Example 344] |
| 250 to 1000 nM | C=CC(=O)Nc1ccc(-c2[nH]c3ncnc(N)c3c2-c2ccc(C(=O)N3CCCC3)cc2)cc1 [Example 786] |
| < 100 nM | C=C(C)C(=O)Nc1ccc(-c2c(-c3ccc(Oc4ncc(C)cn4)c(F)c3)c3c(N)ncnc3n2C)cc1 [Example 96] |
| < 100 nM | C=C(C)C(=O)Nc1ccc(-c2c(-c3cc(F)c(Oc4ncccn4)c(Cl)c3)c3c(N)ncnc3n2C)cc1 [Example 94] |
| 100 to 250 nM | C=CC(=O)N1CCC(c2nnc(-c3c(-c4ccc(Oc5cccc(C)n5)cc4)c4c(N)ncnc4n3C)o2)CC1 [Example 651] |
| < 100 nM | C=CC(=O)Nc1ccc(-c2c(-c3ccc(Oc4ncc(C)cn4)c(OC)c3)c3c(N)ncnc3n2C)cc1 [Example 32] |
| 100 to 250 nM | C=C(C)C(=O)Nc1ccc(-c2c(-c3ccc(C(=O)N4CCCCC4=O)cc3)c3c(N)ncnc3n2C)cc1 [Example 236] |
| 250 to 1000 nM | C=C(C)C(=O)Nc1ccc(-c2c(-c3ccc(C(=O)NC4COC4)cc3)c3c(N)ncnc3n2C)cc1 [Example 289] |
| 100 to 250 nM | C=C(C)C(=O)Nc1ccc(-c2c(-c3ccc(Oc4ncc(F)cn4)c(C#N)c3)c3c(N)ncnc3n2C)cc1 [Example 429] |
| 1000 to 100000 nM | C=CC(=O)N1CCC(c2c(-c3cnn(-c4ccccn4)c3)c3c(N)ncnc3n2C)C1 (stereo not drawn) [Example 779] |
| < 100 nM | C=CC(=O)N1CCC(c2[nH]c3ncnc(N)c3c2-c2ccc(C(=O)N3CCCC3)cc2)C1 (stereo not drawn) [Example 746] |
| 1000 to 100000 nM | C=CC(=O)N1CCC(c2c(-c3cnn(C4CCNCC4)c3)c3c(N)ncnc3n2C)C1 (stereo not drawn) [Example 742] |
| < 100 nM | C=CC(=O)Nc1ccc(-c2c(C3=CCC(C(=O)N4CCCC4)CC3)c3c(N)ncnc3n2C)cc1 (stereo not drawn) [Example 297] |
| < 100 nM | C=C(C)C(=O)Nc1ccc(-c2c(-c3ccc(C(=O)N4CCCCC4COC)cc3)c3c(N)ncnc3n2C)cc1 (stereo not drawn) [Example 369] |
| < 100 nM | C=C(C)C(=O)Nc1ccc(-c2c(-c3ccc(C(=O)N[C@@H]4CCOC4)cc3)c3c(N)ncnc3n2C)cc1 [Example 300] |
| 100 to 250 nM | C=C(C)C(=O)Nc1ccc(-c2c(-c3ccc(Oc4ncc(C)cn4)cc3)c3c(N)ncnc3n2C)cc1 [Example 339] |
| < 100 nM | C=CC(=O)N1CC[C@@H](c2c(-c3ccc(Oc4ncccn4)cc3)c3c(N)ncnc3n2C)C1 (single isomer, unassigned) [Example 697] |
| < 100 nM | C=CC(=O)N1CCC(c2c(-c3ccc(Oc4ncccn4)cc3)c3c(N)ncnc3n2C2CC(O)C2)C1 (stereo not drawn) [Example 714] |
| 1000 to 100000 nM | C=C(C)C(=O)Nc1ccc(-c2c(-c3ccc(Oc4cccc(C(F)(F)F)c4)nc3)c3c(N)ncnc3n2C)cc1 [Example 169] |
| 250 to 1000 nM | C=CC(=O)N1CCC(c2c(-c3ccc(C(=O)N4CCCC4)cc3)c3c(N)ncnc3n2C)C1 (stereo not drawn) [Example 735] |
| 250 to 1000 nM | C=C(C)C(=O)Nc1ccc(-c2c(-c3ccc4c(c3)CCCN4C)c3c(N)ncnc3n2C)cc1 [Example 207] |
| < 100 nM | C=C(C)C(=O)Nc1ccc(-c2c(-c3ccc(C(=O)NC4CC(F)C4)c(OC)c3)c3c(N)ncnc3n2C)cc1 (stereo not drawn) [Example 566] |
| 1000 to 100000 nM | C=CC(=O)N1CCC(c2c(-c3ccc(Oc4ncccn4)cc3)c3c(N)ncnc3n2CCN2CCOCC2)C1 (stereo not drawn) [Example 728] |
| 100 to 250 nM | C=C(C)C(=O)Nc1ccc(-c2c(-c3ccc(C(=O)N(C)C4CCC4)cc3)c3c(N)ncnc3n2C)cc1 [Example 227] |
| < 100 nM | C=CC(=O)Nc1ccc(-c2c(-c3ccc(Oc4cccc(CC)n4)c(OC)c3)c3c(N)ncnc3n2C)cc1 [Example 50] |

What follows are compounds tested on SNU16 cells (assay: SNU16 Cancer Cell Line Proliferation Assay). Conditions: Homo sapiens; SNU-16 cells.
Format: cell-based
Method: Compounds of the present invention were also tested in a SNU16 Cancer Cell Line Proliferation Assay, Test compounds were prepared in a 10 mM DMSO stock solution. 45 uL of stock solution was transferred to a 384 well plate, and a 3-fold 11-point dolution was performed. SNU16 cells in a 384 well cell culture plate were seeded and incubated at 37 degrees for 24 hours. 40 nL of each concentration of compound was transferred from the compound plate to a corresponding well in the cell culture plate by Echo550 liquid handler. The plates were incubated for 96 hours, then equilibrated to room temperature for 15 minutes. 20 uL of CellTiter Glo reagent is added into each well, then the plate was shaken gently for 30 minutes at room temperature. Chemiluminescence was then read on an EnVision reader.

| IC50 | SMILES |
| --- | --- |
| 250 to 1000 nM | C=C(C)C(=O)Nc1ccc(-c2c(-c3ccc(C(=O)NCC4CCOC4)cc3)c3c(N)ncnc3n2C)cc1 (stereo not drawn) [Example 362] |
| ≤ 100 nM | Cn1c(-c2ccc(NC(=O)C3=CCC3)cc2)c(C2=CC[C@@H](C(=O)N3CCCC3)CC2)c2c(N)ncnc21 (single isomer, unassigned) [Example 565] |
| ≤ 100 nM | C=C(C)C(=O)Nc1ccc(-c2c(-c3ccc(Oc4cccc(C)n4)cc3)c3c(N)ncnc3n2C)cc1OC [Example 344] |
| 1000 to 100000 nM | C=CC(=O)Nc1ccc(-c2[nH]c3ncnc(N)c3c2-c2ccc(C(=O)N3CCCC3)cc2)cc1 [Example 786] |
| ≤ 100 nM | C=C(C)C(=O)Nc1ccc(-c2c(-c3ccc(Oc4ncc(C)cn4)c(F)c3)c3c(N)ncnc3n2C)cc1 [Example 96] |
| ≤ 100 nM | C=C(C)C(=O)Nc1ccc(-c2c(-c3cc(F)c(Oc4ncccn4)c(Cl)c3)c3c(N)ncnc3n2C)cc1 [Example 94] |
| ≤ 100 nM | C=CC(=O)N1CCC(c2nnc(-c3c(-c4ccc(Oc5cccc(C)n5)cc4)c4c(N)ncnc4n3C)o2)CC1 [Example 651] |
| ≤ 100 nM | C=CC(=O)Nc1ccc(-c2c(-c3ccc(Oc4ncc(C)cn4)c(OC)c3)c3c(N)ncnc3n2C)cc1 [Example 32] |
| 100 to 250 nM | C=C(C)C(=O)Nc1ccc(-c2c(-c3ccc(C(=O)N4CCCCC4=O)cc3)c3c(N)ncnc3n2C)cc1 [Example 236] |
| 250 to 1000 nM | C=C(C)C(=O)Nc1ccc(-c2c(-c3ccc(C(=O)NC4COC4)cc3)c3c(N)ncnc3n2C)cc1 [Example 289] |
| 100 to 250 nM | C=C(C)C(=O)Nc1ccc(-c2c(-c3ccc(Oc4ncc(F)cn4)c(C#N)c3)c3c(N)ncnc3n2C)cc1 [Example 429] |
| 1000 to 100000 nM | C=CC(=O)N1CCC(c2c(-c3cnn(-c4ccccn4)c3)c3c(N)ncnc3n2C)C1 (stereo not drawn) [Example 779] |
| 250 to 1000 nM | C=CC(=O)N1CCC(c2[nH]c3ncnc(N)c3c2-c2ccc(C(=O)N3CCCC3)cc2)C1 (stereo not drawn) [Example 746] |
| 1000 to 100000 nM | C=CC(=O)N1CCC(c2c(-c3cnn(C4CCNCC4)c3)c3c(N)ncnc3n2C)C1 (stereo not drawn) [Example 742] |
| ≤ 100 nM | C=CC(=O)Nc1ccc(-c2c(C3=CCC(C(=O)N4CCCC4)CC3)c3c(N)ncnc3n2C)cc1 (stereo not drawn) [Example 297] |
| ≤ 100 nM | C=C(C)C(=O)Nc1ccc(-c2c(-c3ccc(C(=O)N4CCCCC4COC)cc3)c3c(N)ncnc3n2C)cc1 (stereo not drawn) [Example 369] |
| ≤ 100 nM | C=C(C)C(=O)Nc1ccc(-c2c(-c3ccc(C(=O)N[C@@H]4CCOC4)cc3)c3c(N)ncnc3n2C)cc1 [Example 300] |
| ≤ 100 nM | C=C(C)C(=O)Nc1ccc(-c2c(-c3ccc(Oc4ncc(C)cn4)cc3)c3c(N)ncnc3n2C)cc1 [Example 339] |
| ≤ 100 nM | C=CC(=O)N1CC[C@@H](c2c(-c3ccc(Oc4ncccn4)cc3)c3c(N)ncnc3n2C)C1 (single isomer, unassigned) [Example 697] |
| ≤ 100 nM | C=CC(=O)N1CCC(c2c(-c3ccc(Oc4ncccn4)cc3)c3c(N)ncnc3n2C2CC(O)C2)C1 (stereo not drawn) [Example 714] |
| 250 to 1000 nM | C=C(C)C(=O)Nc1ccc(-c2c(-c3ccc(Oc4cccc(C(F)(F)F)c4)nc3)c3c(N)ncnc3n2C)cc1 [Example 169] |
| 250 to 1000 nM | C=CC(=O)N1CCC(c2c(-c3ccc(C(=O)N4CCCC4)cc3)c3c(N)ncnc3n2C)C1 (stereo not drawn) [Example 735] |
| 250 to 1000 nM | C=C(C)C(=O)Nc1ccc(-c2c(-c3ccc4c(c3)CCCN4C)c3c(N)ncnc3n2C)cc1 [Example 207] |
| ≤ 100 nM | C=C(C)C(=O)Nc1ccc(-c2c(-c3ccc(C(=O)NC4CC(F)C4)c(OC)c3)c3c(N)ncnc3n2C)cc1 (stereo not drawn) [Example 566] |
| 1000 to 100000 nM | C=CC(=O)N1CCC(c2c(-c3ccc(Oc4ncccn4)cc3)c3c(N)ncnc3n2CCN2CCOCC2)C1 (stereo not drawn) [Example 728] |
| 100 to 250 nM | C=C(C)C(=O)Nc1ccc(-c2c(-c3ccc(C(=O)N(C)C4CCC4)cc3)c3c(N)ncnc3n2C)cc1 [Example 227] |
| ≤ 100 nM | C=CC(=O)Nc1ccc(-c2c(-c3ccc(Oc4cccc(CC)n4)c(OC)c3)c3c(N)ncnc3n2C)cc1 [Example 50] |
